Measured values from article PMC10367051, “Comprehensive Mechanistic View of the Hydrolysis of Oxadiazole-Based Inhibitors by Histone Deacetylase 6 (HDAC6)” (ACS Chemical Biology, 2023).

Tests used:
Format in all cases: biochemical
[1] = target: T1, HDAC7 (Homo sapiens, UniProt Q8WUI4); test: Fluorometric HDAC inhibition assay, HDAC7; settings: purified human protein; Boc-[Lys-TFA]-AMC substrate 10 μM; 15 min preincubation
T1 construct: TwinStrep-FLAG-HALO (N, cleaved yes); made in house; host or cells: HEK293/T17
T1 sequence (Q8WUI4 1-952): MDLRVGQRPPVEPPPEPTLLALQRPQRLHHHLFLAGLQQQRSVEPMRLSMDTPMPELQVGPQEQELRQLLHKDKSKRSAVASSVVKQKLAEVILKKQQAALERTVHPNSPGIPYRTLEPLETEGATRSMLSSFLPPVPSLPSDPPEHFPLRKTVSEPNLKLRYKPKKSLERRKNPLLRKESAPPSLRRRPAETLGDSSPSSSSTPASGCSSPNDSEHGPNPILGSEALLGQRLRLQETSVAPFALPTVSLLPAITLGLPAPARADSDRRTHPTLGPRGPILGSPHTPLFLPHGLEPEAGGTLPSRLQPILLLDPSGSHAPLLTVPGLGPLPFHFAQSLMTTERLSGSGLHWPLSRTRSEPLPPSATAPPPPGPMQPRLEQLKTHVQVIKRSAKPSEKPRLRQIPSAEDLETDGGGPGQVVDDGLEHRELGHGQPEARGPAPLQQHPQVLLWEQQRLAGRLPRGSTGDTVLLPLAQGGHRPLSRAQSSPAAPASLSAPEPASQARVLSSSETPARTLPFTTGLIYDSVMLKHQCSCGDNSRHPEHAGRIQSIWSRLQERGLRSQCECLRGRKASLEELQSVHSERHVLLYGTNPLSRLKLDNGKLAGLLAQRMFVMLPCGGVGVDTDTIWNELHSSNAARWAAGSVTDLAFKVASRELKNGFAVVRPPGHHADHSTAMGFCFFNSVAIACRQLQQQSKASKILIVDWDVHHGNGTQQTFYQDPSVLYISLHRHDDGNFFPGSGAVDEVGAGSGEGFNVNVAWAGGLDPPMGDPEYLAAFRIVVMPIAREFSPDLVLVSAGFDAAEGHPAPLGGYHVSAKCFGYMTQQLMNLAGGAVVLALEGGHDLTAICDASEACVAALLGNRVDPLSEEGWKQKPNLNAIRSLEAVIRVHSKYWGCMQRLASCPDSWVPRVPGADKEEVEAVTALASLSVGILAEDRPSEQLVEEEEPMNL
Procedure: (§1) Large-scale expression of recombinant human HDACs was carried out as described previously.[32],[37] Briefly, HEK293/T17 cells were transiently transfected with expression pMM222 plasmids comprising N-terminally tagged (TwinStrep-FLAG-HALO tag; Figure S1) HDAC genes using linear poly(ethyleneimine) (PEI, Polysciences Inc.). Cells were harvested three days post-transfection, and cell pellets were resuspended in the lysis buffer (100 mM Tris-HCl, 10 mM NaCl, 5 mM KCl, 2 mM MgCl2, and 10% glycerol at pH 8.0). Cells were disrupted by sonication, cell lysates were cleared by centrifugation, and soluble fusion proteins were first purified by Streptactin affinity chromatography (IBA). For all HDACs but HDACs 1, 10, and 11, the N-terminal tag was cleaved off overnight by the addition of TEV protease (10:1 HDAC/TEV ratio). Size-exclusion chromatography on a Superose 6 column (GE Healthcare Bio-Sciences; running buffer 30 mM HEPES, 140 mM NaCl, 10 mM KCl, 3% glycerol, and 0.25 mM TCEP) was used as the final purification step for all HDAC constructs.
(§2) Optimized fluorometric assays were used to determine inhibition constants of studied compounds against individual HDAC isoforms as described previously.[32] Briefly, reactions were performed in the activity buffer comprising 50 mM HEPES, 140 mM NaCl, and 10 mM KCl at pH 7.4 supplemented with 1 mg mL^–1 bovine serum albumin (BSA), 1 mM tris(2-carboxyethyl)phosphine (TCEP), 10 μM substrates, and optimized concentrations of HDACs. The Ac-Gly-Ala-[Lys-Ac]-7-amino-methylcoumarylamide (AMC) substrate was used to profile HDACs 1, 2, 3, and 6; Boc-[Lys-TFA]-7-amino-methylcoumarylamide was used for HDACs 4, 5, 7, 8, and 9 (both substrates: Bachem); fluorescein-labeled N8-acetylspermidine was used for HDAC10;[32] and an internally quenched TNFα-derived peptide derivative was used for HDAC11.[39] Deacetylation reactions were monitored either by high-performance liquid chromatography (HPLC) (HDAC10) or by quantification of released AMC (λex/λem = 365/440 nm) using a CLARIOstar plate reader (BMG Labtech GmbH).

[2] = target: T2, HDAC8 (Homo sapiens, UniProt Q9BY41); test: Fluorometric HDAC inhibition assay, HDAC8; settings: purified human protein; Boc-[Lys-TFA]-AMC substrate 10 μM; 15 min preincubation
T2 construct: TwinStrep-FLAG-HALO (N, cleaved yes); made in house; host or cells: HEK293/T17
T2 sequence (Q9BY41 1-377): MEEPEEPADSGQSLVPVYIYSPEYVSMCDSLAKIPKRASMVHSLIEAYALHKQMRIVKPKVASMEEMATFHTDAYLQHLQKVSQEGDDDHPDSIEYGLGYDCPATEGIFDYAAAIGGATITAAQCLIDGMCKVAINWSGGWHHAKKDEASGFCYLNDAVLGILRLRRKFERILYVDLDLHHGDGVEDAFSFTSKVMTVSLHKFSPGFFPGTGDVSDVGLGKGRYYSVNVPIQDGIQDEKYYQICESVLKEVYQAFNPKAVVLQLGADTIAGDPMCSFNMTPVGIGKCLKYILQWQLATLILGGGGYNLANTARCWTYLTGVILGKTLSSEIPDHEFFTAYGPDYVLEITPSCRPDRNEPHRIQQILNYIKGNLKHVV
Procedure: as §1, §2

[3] = target: T3, HDAC9 (Homo sapiens, UniProt Q9UKV0); test: Fluorometric HDAC inhibition assay, HDAC9; settings: purified human protein; Boc-[Lys-TFA]-AMC substrate 10 μM; 15 min preincubation
T3 construct: TwinStrep-FLAG-HALO (N, cleaved yes); made in house; host or cells: HEK293/T17
Procedure: as §1, §2

[4] = target: T4, HDAC11 (Homo sapiens, UniProt Q96DB2); test: HDAC11 inhibition assay (internally quenched peptide); settings: purified human protein; internally quenched TNFα-derived peptide substrate; 15 min preincubation
T4 construct: made in house; host or cells: HEK293/T17
T4 sequence (Q96DB2 1-347): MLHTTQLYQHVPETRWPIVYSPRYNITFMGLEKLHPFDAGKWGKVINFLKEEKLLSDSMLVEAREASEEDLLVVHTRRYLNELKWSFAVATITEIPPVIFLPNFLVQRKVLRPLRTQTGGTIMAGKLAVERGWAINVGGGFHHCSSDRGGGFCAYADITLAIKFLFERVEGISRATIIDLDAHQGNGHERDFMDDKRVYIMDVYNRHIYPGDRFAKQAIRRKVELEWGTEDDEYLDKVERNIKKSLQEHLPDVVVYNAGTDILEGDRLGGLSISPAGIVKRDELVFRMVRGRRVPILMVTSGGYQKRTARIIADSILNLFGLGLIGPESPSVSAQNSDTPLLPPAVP
Procedure: as §1, §2

T3 sequence (Q9UKV0 whole entry): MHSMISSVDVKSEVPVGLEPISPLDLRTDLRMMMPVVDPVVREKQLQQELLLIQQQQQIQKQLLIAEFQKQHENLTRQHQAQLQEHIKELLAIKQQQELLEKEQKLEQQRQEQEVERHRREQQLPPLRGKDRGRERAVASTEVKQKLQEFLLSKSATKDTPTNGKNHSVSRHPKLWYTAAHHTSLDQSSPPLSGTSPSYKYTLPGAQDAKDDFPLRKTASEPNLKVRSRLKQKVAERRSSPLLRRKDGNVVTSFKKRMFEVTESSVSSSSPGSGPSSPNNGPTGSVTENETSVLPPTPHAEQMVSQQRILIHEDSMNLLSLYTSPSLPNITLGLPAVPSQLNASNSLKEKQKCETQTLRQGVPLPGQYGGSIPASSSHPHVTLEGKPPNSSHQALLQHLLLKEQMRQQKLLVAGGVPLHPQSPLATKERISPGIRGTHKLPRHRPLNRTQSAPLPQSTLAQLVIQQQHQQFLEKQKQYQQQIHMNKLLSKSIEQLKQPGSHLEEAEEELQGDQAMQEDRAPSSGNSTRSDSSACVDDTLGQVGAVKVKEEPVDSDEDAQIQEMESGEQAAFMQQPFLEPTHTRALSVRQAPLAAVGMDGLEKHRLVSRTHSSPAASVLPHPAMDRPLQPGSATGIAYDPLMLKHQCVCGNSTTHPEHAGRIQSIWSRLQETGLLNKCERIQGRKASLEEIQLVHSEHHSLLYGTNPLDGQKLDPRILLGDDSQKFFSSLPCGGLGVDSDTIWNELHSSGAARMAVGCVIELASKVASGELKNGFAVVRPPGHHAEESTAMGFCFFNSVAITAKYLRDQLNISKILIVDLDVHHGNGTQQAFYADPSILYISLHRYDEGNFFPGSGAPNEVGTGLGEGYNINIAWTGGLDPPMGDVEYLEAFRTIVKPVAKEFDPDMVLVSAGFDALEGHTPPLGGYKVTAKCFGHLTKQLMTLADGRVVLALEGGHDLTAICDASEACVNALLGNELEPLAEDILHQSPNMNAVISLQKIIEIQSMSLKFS

| SMILES | IC50 [1] [µM] | IC50 [2] [µM] | IC50 [3] [µM] | IC50 [4] [µM] |
| --- | --- | --- | --- | --- |
| CS(=O)(=O)N(Cc1ccc(-c2nnc(C(F)(F)F)o2)cn1)c1cccc(Cl)c1 [compound 7] | > 20 | > 20 | > 20 | > 20 |
| CS(=O)(=O)N(Cc1ccc(-c2nnc(C(F)F)o2)cn1)c1cccc(Cl)c1 [compound 8] | > 20 | > 20 | > 20 | > 20 |
| CS(=O)(=O)N(Cc1ccc(C(=O)NNC(=O)C(F)F)cn1)c1cccc(Cl)c1 [compound 6] |  | > 20 |  |  |

The next lines start with the values.

| IC50 [1] [µM] | IC50 [2] [µM] | IC50 [3] [µM] | IC50 [4] [µM] | SMILES |
| --- | --- | --- | --- | --- |
|  | > 20 |  |  | CS(=O)(=O)N(Cc1ccc(C(=O)NNC(=O)C(F)(F)F)cn1)c1cccc(Cl)c1 [compound 5] |
| > 20 | > 20 | > 20 | > 20 | CS(=O)(=O)N(Cc1ccc(C(=O)NN)cn1)c1cccc(Cl)c1 [compound 4] |
